In patent publication US8623661B2, “Iron chelating agent, method for producing same, method for determining amount of iron ions and method for trapping iron ions” (National University Corporation Asahikawa Medical College, priority 2008, dated 2014):

Assays:
Type in all cases: binding
[1] = test system: iron citrate complex ammonium salt (FAC); assay: Evaluation C: chelating ability in MOPS/acetonitrile solvent, FAC solution
Experimental: (§1) Evaluation was carried out by the following evaluation method C as to whether or not the iron chelating agent according to Examples 1 to 3 had chelating ability with iron in 3-morpholinopropanesulfonic acid (C7H15NO4S;MOPS) and acetonitrile solution as solvents used in high performance liquid chromatography (HPLC).
(§2) 2.09 g of morpholinopropanesulfonic acid (C7H15NO4S; FW=209.26, Code 341-01801, Lot PX013, manufactured by Dojindo/Wako Corporation) was added to a 100 mL Erlenmeyer flask, 80 mL of ultrapure water (pure water produced by an ultrapure water production system manufactured by Millipore Corporation (Milli-Q); “Milli-Q water”) was added thereto and dissolved [pH 4.15 (24.4° C.)]. To this solution, 1N sodium hydroxide solution (1 mol/1 sodium hydroxide solution, Code 192-02175, Lot SEP7274, manufactured by Wako Pure Chemicals Industries) was added in 100 μl portions, the pH was adjusted to 7.0 and further Milli-Q water was made up to 100 mL in a measuring cylinder, whereby 100 mL of MOPS solution (pH 6.99) was prepared.
(§3) An iron chelating agent solution having an iron chelating agent concentration of 50 mM was prepared with respect to the iron chelating agent according to Examples 1 to 3, in the same manner as the preparation method of the iron chelating solution in evaluation A of the iron chelating agent.
(§4) Further, 100 mM of MOPS solution (pH6.99) prepared by the preparation method of the MOPS solution was used.
(§5) Furthermore, a stock solution of acetonitrile (C2H3N, FW=41.05, Code 347-06641, Lot WPI96, manufactured by Dojindo/Wako corporation) was used.
(§6) 13.8 mL of Milli-Q water was taken in a 50 mL conical tube, 1.2 mL of each of the iron chelating agent solutions (Fe-Ser•Na (50 mM), Fe-His•Na (50 mM), Fe-Glu•Na (50 mM)) according to the iron chelating agents of Examples 1 to 3 was added, 1.0 mL of 100 mM MOPS solution was added thereto, and a further 4.0 mL of acetonitrile solution was added to produce an iron chelating solution using MOPS. The iron chelating agent solutions using MOPS and iron chelating agent according to Examples 1 to 3 were defined respectively as Fe-Ser•Na (MOPS solution)” (iron chelating agent according to
(§7) Example 1), “Fe-His•Na (MOPS solution)” (iron chelating agent according to Example 2), and “Fe-Glu•Na(MOPS solution)” (iron chelating agent according to Example 3).
An iron citrate complex ammonium salt solution (FAC solution (20 mM)) having a concentration of iron ions of 20 mM and an iron citrate complex ammonium salt solution (FAC solution (2 mM)) having a concentration of iron ions of 2 mM were prepared, in the same manner as the preparation method of the iron citrate complex ammonium solution in evaluation A of the iron chelating agent.
FAC solution (20 mM) was added to and mixed with each of the iron chelating agent solutions [Fe-Ser•Na (MOPS solution), Fe-His•Na (MOPS solution), Fe-Glu•Na (MOPS solution)] using MOPS.

[2] = test system: iron nitrilotriacetate complex (Fe-NTA); assay: Evaluation C: chelating ability in MOPS/acetonitrile solvent, Fe-NTA solution
Experimental: as §1, §2, §3, §4, §5, §6, §7
Further, iron nitrilotriacetate complex solution (“Fe-NTA solution (20 mM)”) having a concentration of iron ions of 20 mM and iron nitrilotriacetate complex solution (“Fe-NTA solution (2 mM)”) having a concentration of iron ions of 2 mM were prepared, in the same manner as the preparation method of iron nitrilotriacetate complex solution in evaluation B of the iron chelating agent.
Further, Fe-NTA solution (20 mM) was added to and mixed with each of the iron chelating agent solutions [Fe-Ser•Na (MOPS solution), Fe-His•Na (MOPS solution), Fe-Glu•Na (MOPS solution)] using MOPS. […] Further, Fe-NTA solution (2 mM) was added and mixed thereto as described above.

[3] = biological target: T1, transferrin iron complex (holo-Transferrin (hTf), human) (Homo sapiens, UniProt P02787); assay: Evaluation D: capture of iron ions from transferrin iron complex; conditions: for hTf residual ratio (%): relative to non-treated holo-Transferrin, 24 hours with 5 mM chelator solution; for Absorbance (466 nm): transferrin fraction after 24 hours at room temperature with 5 mM chelator solution and 50 μM transferrin iron complex solution, ultrafiltration
T1 construct: purchased Sigma Corporation T0665-50MG
Experimental: Evaluation was carried out by the following evaluation method D with respect to properties whether iron ions were captured from the transferrin iron complex (transferrin iron complex in which transferrin is chelated to iron ions) by the iron chelating agent according to Examples 1 to 2.
The iron chelating agent according to Example 1 was dissolved in 1×D-PBS (pH 7.2) to prepare an iron chelating agent solution (“Fe-Ser•Na (5 mM)”) having an iron chelating agent concentration of 5 mM, in the same manner as the preparation method of the iron chelating agent in evaluation A of the iron chelating agent.
Further, as described above, the iron chelating agent according to Example 2 was dissolved in 1×D-PBS (pH 7.2) to prepare an iron chelating agent solution (“Fe-His•Na (5 mM)”) having an iron chelating agent concentration of 5 mM.
Further, 800 mM HEDTA solution as the iron chelating agent according to Comparative Example 3 was prepared as described above. 13.76 g of crystals were taken in a 50 mL conical tube, 25 mL of Milli-Q water was added and dissolution performed, and then adjustment to pH 7.0 was performed using concentrated hydrochloric acid (35 to 37%) and the total amount was adjusted to 50 mL using Milli-Q water (HEDTA solution (800 mM)). HEDTA solution (“HEDTA solution (5 mM)”) having a concentration of HEDTA of 5 mM was prepared using 1×D-PBS (pH 7.2).
Further, 800 mM solution (pH 7.0) was prepared by using NTA2Na and NTA3Na as iron chelating agents according to Comparative Example 1 as described above. 9.4 g of NTA2Na was dissolved in Milli-Q water and the total volume was made up to 50 mL (referred to as “NTA2Na solution (800 mM)” in some cases). Meanwhile, 11.0 g of NTA3Na was dissolved in Milli-Q water and the total volume was made up to 50 mL (“NTA3Na solution (800 mM)”). NTA2Na solution (800 mM) (pH 6.3) and NTA3Na solution (800 mM) (pH 11.3) were mixed to produce 800 mM of NTA solution with pH 7.0. NTA solution (“NTA solution (5 mM)”) having a concentration of NTA of 5 mM was prepared by using 1×D-PBS (pH 7.2).
A commercially available transferrin iron complex (holo-Transferrin (hTf), human, Code T0665-50MG, Lot 095K1633, manufactured by Sigma Corporation) was dissolved in 1×D-PBS (pH 7.2) to prepare a transferrin iron complex solution having a concentration of iron ions (iron ions which are transferrin-bound iron) of 50 μM.
50 μl of 50 μM transferrin iron complex solution was taken in a 1.5 mL sample tube, 50 μl of each of iron chelating agent solutions (Fe-Ser•Na (5 mM), Fe-His•Na (5 mM), NTA solution (5 mM), HEDTA solution (5 mM)) was added thereto and left at room temperature under light shielding for 24 hours. 50 μl of various reaction liquids was taken in a centrifugal ultrafiltration unit (trade name “Amicon Ultra-4 Ultracel-30k” UFC8030, manufactured by Millipore Corporation), and 450 μl of 1×D-PBS (pH 7.2) was added thereto, centrifugation was carried out at 3,500 rpm and 20° C. for 30 minutes, and transferrin and each low molecular chelating agents were separated (first time). After centrifugation, the filtrate was discarded. 450 μl of 1×D-PBS (pH 7.2) was added again to the solution (about 50 μl) containing transferrin concentrated in a unit and centrifugation was carried out with the same conditions (second time). A solution containing transferrin concentrated in a unit was recovered after the second time of centrifugation and the absorbance at the wavelength of 466 nm was measured using a spectrophotometer (trade name “Spectrophotometer DU 640”, manufactured by Beckman Coulter).

[4] = FAC solution (2 mM) added to chelating agent MOPS solution (MOPS, acetonitrile)
[5] = FAC solution (20 mM) added to chelating agent MOPS solution (MOPS, acetonitrile)
[6] = Fe-NTA solution (2 mM) added to chelating agent MOPS solution (MOPS, acetonitrile)
[7] = Fe-NTA solution (20 mM) added to chelating agent MOPS solution (MOPS, acetonitrile)

T1 sequence (P02787 20-698, one chain of several): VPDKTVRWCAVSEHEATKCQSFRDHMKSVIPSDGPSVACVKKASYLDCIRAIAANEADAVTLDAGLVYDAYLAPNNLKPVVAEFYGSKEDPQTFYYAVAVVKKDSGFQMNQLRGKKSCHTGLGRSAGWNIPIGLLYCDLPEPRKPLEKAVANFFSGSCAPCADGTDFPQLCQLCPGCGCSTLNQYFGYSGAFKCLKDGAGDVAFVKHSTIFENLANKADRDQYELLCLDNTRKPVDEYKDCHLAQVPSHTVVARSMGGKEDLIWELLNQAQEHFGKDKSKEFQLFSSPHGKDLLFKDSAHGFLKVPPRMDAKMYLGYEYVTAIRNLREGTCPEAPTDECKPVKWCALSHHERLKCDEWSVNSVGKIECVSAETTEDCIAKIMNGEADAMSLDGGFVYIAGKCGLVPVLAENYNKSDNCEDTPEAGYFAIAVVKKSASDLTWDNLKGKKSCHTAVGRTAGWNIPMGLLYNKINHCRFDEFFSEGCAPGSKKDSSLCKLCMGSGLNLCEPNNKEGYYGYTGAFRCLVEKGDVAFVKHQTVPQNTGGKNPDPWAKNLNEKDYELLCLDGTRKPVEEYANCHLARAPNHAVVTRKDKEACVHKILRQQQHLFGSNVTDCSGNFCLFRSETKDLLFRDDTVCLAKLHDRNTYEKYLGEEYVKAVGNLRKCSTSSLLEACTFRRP

Compound	colour of the solution after mixing [1, 4]	colour of the solution after mixing [1, 5]	colour of the solution after mixing [2, 6]	colour of the solution after mixing [2, 7]	hTf residual ratio (%) [3] [%]	Absorbance (466 nm) [3]
NC(=O)CCC(NCc1ccccc1O)C(=O)O (centres unmarked) [Example 3, o-[(1-carboxy-2-carbamoylmethylethyl)-amino-methyl]-phenol]	dark brown-colored	dark brown-colored	dark brown-colored	dark brown-colored		
O=C(O)C(Cc1c[nH]cn1)NCc1ccccc1O (centres unmarked) [Example 2, o-[(1-carboxy-2-(1H-imidazol-4-yl)ethyl)-amino-methyl]-phenol]	dark brown-colored	dark brown-colored	dark brown-colored	dark brown-colored	83.78	0.0620
O=C(O)CN(CC(=O)O)CC(=O)O [Comparative Example 1, nitrilotriacetic acid, reference compound]					79.59	0.0589
N-(2-hydroxyethyl)-ethylenediamine triacetic acid [Comparative Example 3, reference compound]					69.59	0.0515
